{
  "source": "patent US11841369B2",
  "about": "“Method for improving quality of therapeutic cell through real-time glutathione measurement” (CELL2IN, INC., priority 2017, dated 2023)",
  "key": {"hUC-MSCs [1]": {"test_system": "hUC-MSCs", "experiment": "CFU-F assay of hUC-MSCs", "format": "cell-based, human", "conditions": "125 or 250 μg/mL AA2G, three days", "description": "The inventors observed an effect of the material on stem cells by treating each stem cells with a material for enhancing a glutathione evaluation parameter. When hUC-MSCs were subcultured in a L-AA2G-containing medium, CFU-F, migration capacity, and an anti-inflammatory effect were observed. A CFU-F assay (n=3) was performed by treating hUC-MSCs with 125 or 250 μg/mL of AA2G for three days. As shown in FIGS. 16A and 16B, it was confirmed that, when AA2G was treated, CFU-F increased. In addition, as hUC-MSCs were treated with 125 or 250 μg/mL of AA2G for three days, PDGF-AA-induced migration capacity (n=3) was analyzed. As shown in FIGS. 17A and 17B, it was confirmed that the migration capacity was increased by AA2G treatment. In addition, the reduction in T cell proliferation, a reduction in T cell differentiation, and the promotion of Treg cell differentiation were observed by treating hUC-MSCs with 125 or 250 μg/mL of AA2G for three days. […] Meanwhile, hUC-MSCs were cultured with a glutathione precursor such as γ-glutamyl cysteine (GGC, 0.1, 0.25, and 0.5 mM). A CFU-F assay (n=3) was performed by treating hUC-MSCs with each concentration of GGC for 2 hours. […] In addition, SDF1α and PDGF-AA-induced migration capacities (n=3) were analyzed for hUC-MSCs without treatment with GGC, and SDF1α- and PDGF-AA-induced migration abilities (n=3) were analyzed by treating hUC-MSCs with the increasing concentrations of GGC. STI571 was used as a PDGFR kinase inhibitor. As shown in FIGS. 20A to 20C, it was confirmed that, according to an increase in GGC treatment concentration, SDF1α- and PDGF-AA-induced migration capacities were enhanced. A CFU-F assay (n=3) was performed by treating hUC-MSCs with 0.2, 1, 2, and 4 μM ferrostatin-1 and 0.1, 0.5, 1, and 2 μM liproxstatin-1 for 24 hours."}, "T cells": {"test_system": "T cells", "experiment": "Anti-inflammatory effect of treated hUC-MSCs: T cell proliferation, T cell differentiation, Treg cell differentiation", "format": "cell-based", "conditions": "hUC-MSCs treated with 125 or 250 μg/mL AA2G, three days", "description": "The inventors observed an effect of the material on stem cells by treating each stem cells with a material for enhancing a glutathione evaluation parameter. When hUC-MSCs were subcultured in a L-AA2G-containing medium, CFU-F, migration capacity, and an anti-inflammatory effect were observed. A CFU-F assay (n=3) was performed by treating hUC-MSCs with 125 or 250 μg/mL of AA2G for three days. As shown in FIGS. 16A and 16B, it was confirmed that, when AA2G was treated, CFU-F increased. In addition, as hUC-MSCs were treated with 125 or 250 μg/mL of AA2G for three days, PDGF-AA-induced migration capacity (n=3) was analyzed. As shown in FIGS. 17A and 17B, it was confirmed that the migration capacity was increased by AA2G treatment. In addition, the reduction in T cell proliferation, a reduction in T cell differentiation, and the promotion of Treg cell differentiation were observed by treating hUC-MSCs with 125 or 250 μg/mL of AA2G for three days.\nIn addition, hUC-MSCs were cultured with ferrostatin-1 (0.2, 1, 2 and 4 μM) and liproxstatin-1 (0.1, 0.5, 1 and 2 μM), which control a glutathione level in cells by inhibiting lipid oxidation. […] Meanwhile, the hUC-MSCs were treated with 1 μM ferrostatin-1 for 24 hours, 0.2 mM GGC for 2 hours, and 2 mM GSH-EE for 2 hours. As a result, the reduction in T cell proliferation ability and the reduction in T cell differentiation capacity were observed, and promotion of Treg cell differentiation was observed."}, "hUC-MSCs [2]": {"test_system": "hUC-MSCs", "experiment": "Oxidative stress resistance capacity (ORC) analysis with RSL3", "format": "cell-based, human", "conditions": "hUC-MSCs subcultured three times with AA2G 250 μg/mL, vs naive cell group (NC)", "description": "In addition, GH is calculated as the coefficient of variation or robust coefficient of variation of cellular FR. GRC refers to a value obtained by real-time monitoring of FR after living cells are treated with an oxidizing agent, as calculated by dividing a value obtained by subtracting AUC of a group treated with 0.1-100 mM N-ethylmaleimide (NEM) from FR AUC of an oxidizing agent (diamide, H2O2, etc.)-treated group by a value obtained by subtracting the AUC of NEM-treated group from AUC of the untreated control, and multiplying the resulting value by 100. The FR of the NEM-treated group is a value for increasing the sensitivity of a GRC value by treating it as the blank value of the FR of the cells of interest. […] To remove the MitoFreSH-Tracer from the medium before measurement, the medium was exchanged with fresh 10 mM HEPES-containing HBSS, and a fluorescence image was obtained using a confocal imaging system, Operetta. By comparing GSH levels quantified from control cells not treated with RSL3 or control cells before treated with RSL3, the distribution of GSH expression-changed cells was calculated. Based on the point where the distribution histogram is divided into two peaks, the cells were divided into GSH^High cells (right peak) and GSH^Low cells (left peak), and then a ratio of corresponding cells was expressed as a percentage (%). […]"}},
  "data": [
    {"smiles": "O=C1O[C@H]([C@@H](O)CO)C(O)=C1O[C@H]1O[C@H](CO)[C@@H](O)[C@H](O)[C@H]1O", "note": "[AA2G, ascorbic acid 2-glucoside]", "values": [
      {"measurement": "CFU-F", "setting": "hUC-MSCs [1]", "result": "increased"},
      {"measurement": "T cell differentiation", "setting": "T cells", "result": "reduction"},
      {"measurement": "T cell proliferation", "setting": "T cells", "result": "reduction"},
      {"measurement": "Treg cell differentiation", "setting": "T cells", "result": "promotion"},
      {"measurement": "anti-inflammatory effect of stem cells", "setting": "T cells", "result": "exhibited"},
      {"measurement": "FreSH-Tracer-based ORC (GSH^High cells)", "setting": "hUC-MSCs [2]", "result": "higher"}
    ]}
  ]
}
